Measurements taken from paper PMC7956344, “Structure Elucidation and Cholinesterase Inhibition Activity of Two New Minor Amaryllidaceae Alkaloids” (Molecules, 2021).
Read-outs that look alike come from different tables or passages of the source.

Columns and labels:
[1] = molecular target: T1, human butyrylcholinesterase (hBuChE) (Homo sapiens, UniProt P06276); test: hBuChE inhibition assay (modified Ellman method, BuTChI substrate); format: biochemical; settings: for IC50: mean ± SEM of three independent measurements, each in triplicate; for % Inhibition hBuChE ± SEM / inhibition at 100 µM: tested at 100 µM compound concentration; for % Inhibition hBuChE ± SEM: 100 µM; for inhibition at 100 µM: read-out: % Inhibition hBuChE ± SEM
T1 sequence (P06276 29-602): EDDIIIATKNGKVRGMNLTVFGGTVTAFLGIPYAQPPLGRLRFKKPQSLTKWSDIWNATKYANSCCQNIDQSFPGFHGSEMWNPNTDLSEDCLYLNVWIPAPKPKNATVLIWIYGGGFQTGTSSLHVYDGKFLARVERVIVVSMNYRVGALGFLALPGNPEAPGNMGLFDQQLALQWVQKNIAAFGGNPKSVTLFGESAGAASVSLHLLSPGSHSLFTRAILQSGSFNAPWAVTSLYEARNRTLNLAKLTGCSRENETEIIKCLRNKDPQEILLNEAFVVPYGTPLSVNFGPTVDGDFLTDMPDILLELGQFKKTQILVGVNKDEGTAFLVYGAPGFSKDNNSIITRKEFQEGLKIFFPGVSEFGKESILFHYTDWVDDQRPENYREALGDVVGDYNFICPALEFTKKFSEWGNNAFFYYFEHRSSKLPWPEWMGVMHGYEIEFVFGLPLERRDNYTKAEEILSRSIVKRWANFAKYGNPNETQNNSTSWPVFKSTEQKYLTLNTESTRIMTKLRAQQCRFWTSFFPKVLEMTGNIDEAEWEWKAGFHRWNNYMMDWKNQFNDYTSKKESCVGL

[2] = molecular target: T1, human butyrylcholinesterase (hBuChE); settings: previously isolated narcikachnine-type alkaloids; cited from earlier work
[3] = indicated centrally active crossing of the BBB via passive diffusion; cited from earlier work
[4] = system: POP; settings: previously isolated narcikachnine-type alkaloids; cited from earlier work

SMILES	IC50 [1] [µM]	% Inhibition hBuChE ± SEM [1]	inhibition at 100 µM [1] [%]	IC50 [2] [µM]	in vitro permeability (Pe) [3]	IC50 [4] [µM]
COc1cc2c(cc1O)[C@@H](O)O[C@@H]1CC=C3CCN(C)[C@H]3[C@H]21 [9-O-demethyllycorenine (1), 9-O-demethyllycorenine]	> 100	almost devoid of cholinesterase inhibitory activity	30.2 ± 0.8			
COc1ccc2c3c1O[C@H]1C[C@@H](O)C=C[C@@]31CCN(C)C2 [galantamine]			68.2 ± 1.2			
COc1cc(-c2cccc3c2N(C)CC3)c(CN2CC[C@@]34C=C[C@H](O)C[C@@H]3Oc3c(OC)ccc(c34)C2)cc1O [narciabduliine (2), narciabduliine]	3.44 ± 0.02	94.1 ± 0.2%	> 90			
COc1cc(-c2cccc3c2N(C)CC3)c(CN2CC[C@@]34C=C[C@H](O)C[C@@H]3Oc3c(OC)ccc(c34)C2)c(OC)c1OC [narcieliine]				1.3 ± 0.3	14.1 ± 1.0 × 10^−6 cm·s^−1	163 ± 13
COc1ccc2c3c1OC1CC(=O)CCC31CCN(Cc1cc3c(cc1-c1cccc4c1N(C)CC4)OCO3)C2 (stereo not shown) [narcimatuline]				5.9 ± 0.2		29.2 ± 1
COc1ccc2c3c1OC1CC(O)CCC31CCN(Cc1cc3c(cc1-c1cccc4ccn(C)c14)OCO3)C2 (stereo not shown) [narcipavline]				24.4 ± 1.2		
